Test results published in patent US11382328B2, “Rapid drug discovery methods for pathogen inactivation” (priority 2019, dated 2022).

Tested on: E. coli strain W3110
Experiment: Synergy assays: Biolog chemical sensitivity panels with Group IB metal, coefficient of drug interaction (CDI) from relative growth
Assay type: cell-based
Settings: for CDI (coefficient of drug interaction), gold + biocide: Gold (μM); for CDI (coefficient of drug interaction), copper mixed with biocide: Copper (mM) section
[1] = Copper (mM), 1st of 3 copper concentrations (head line not shown), biocide concentration 1 of 4, E. coli
[2] = Copper (mM), 1st of 3 copper concentrations (head line not shown), biocide concentration 2 of 4, E. coli
[3] = Copper (mM), 1st of 3 copper concentrations (head line not shown), biocide concentration 3 of 4, E. coli
[4] = Copper (mM), 1st of 3 copper concentrations (head line not shown), biocide concentration 4 of 4, E. coli
[5] = Copper (mM), 2nd of 3 copper concentrations (head line not shown), biocide concentration 1 of 4, E. coli
[6] = Copper (mM), 2nd of 3 copper concentrations (head line not shown), biocide concentration 2 of 4, E. coli
[7] = Copper (mM), 2nd of 3 copper concentrations (head line not shown), biocide concentration 3 of 4, E. coli
[8] = Copper (mM), 2nd of 3 copper concentrations (head line not shown), biocide concentration 4 of 4, E. coli
[9] = Copper (mM), 3rd of 3 copper concentrations (head line not shown), biocide concentration 1 of 4, E. coli
[10] = Copper (mM), 3rd of 3 copper concentrations (head line not shown), biocide concentration 2 of 4, E. coli
[11] = Copper (mM), 3rd of 3 copper concentrations (head line not shown), biocide concentration 3 of 4, E. coli
[12] = Copper (mM), 3rd of 3 copper concentrations (head line not shown), biocide concentration 4 of 4, E. coli
[13] = first of 3 gold concentrations, biocide concentration 1 of 4
[14] = first of 3 gold concentrations, biocide concentration 2 of 4
[15] = first of 3 gold concentrations, biocide concentration 3 of 4
[16] = first of 3 gold concentrations, biocide concentration 4 of 4
[17] = second of 3 gold concentrations, biocide concentration 1 of 4
[18] = second of 3 gold concentrations, biocide concentration 2 of 4
[19] = second of 3 gold concentrations, biocide concentration 3 of 4
[20] = second of 3 gold concentrations, biocide concentration 4 of 4
[21] = third of 3 gold concentrations, biocide concentration 1 of 4
[22] = third of 3 gold concentrations, biocide concentration 2 of 4
[23] = third of 3 gold concentrations, biocide concentration 3 of 4
[24] = third of 3 gold concentrations, biocide concentration 4 of 4
[25] = Silver 0.5 μM, biocide concentration 1 of 4
[26] = Silver 0.5 μM, biocide concentration 2 of 4
[27] = Silver 0.5 μM, biocide concentration 4 of 4
[28] = Silver 1.0 μM, biocide concentration 1 of 4
[29] = Silver 1.0 μM, biocide concentration 2 of 4
[30] = Silver 1.0 μM, biocide concentration 3 of 4
[31] = Silver 1.0 μM, biocide concentration 4 of 4
[32] = Silver 5.0 μM, biocide concentration 1 of 4
[33] = Silver 5.0 μM, biocide concentration 2 of 4
[34] = Silver 5.0 μM, biocide concentration 3 of 4
[35] = Silver 5.0 μM, biocide concentration 4 of 4
[36] = Silver 0.5 μM, 4th of four biocide concentrations, E. coli
[37] = Silver 1.0 μM, 4th of four biocide concentrations, E. coli
[38] = Silver 5.0 μM, 4th of four biocide concentrations, E. coli
[39] = 1st of 3 copper concentrations (value not shown), 4th of four biocide concentrations
[40] = 2nd of 3 copper concentrations (value not shown), 4th of four biocide concentrations
[41] = 3rd of 3 copper concentrations (value not shown), 4th of four biocide concentrations
[42] = Gold section of Table 5, first of three gold concentrations (μM, value not given), biocide concentration 4 of 4
[43] = Gold section of Table 5, second of three gold concentrations (μM, value not given), biocide concentration 4 of 4
[44] = Gold section of Table 5, third of three gold concentrations (μM, value not given), biocide concentration 4 of 4
[45] = 2nd of 3 copper concentrations (value not shown), 3rd of four biocide concentrations
[46] = Silver 0.5 μM, biocide concentration 3 of 4

## CC1(C)S[C@@H]2[C@H](NC(=O)[C@H](NC(=O)N3CCNC3=O)c3ccccc3)C(=O)N2[C@H]1C(=O)O [aziocillin]
[1]
  CDI (coefficient of drug interaction): 0.97
[2]
  CDI (coefficient of drug interaction): 1.05
[3]
  CDI (coefficient of drug interaction): 1.08
[4]
  CDI (coefficient of drug interaction): Tox
[5]
  CDI (coefficient of drug interaction): 0.94
[6]
  CDI (coefficient of drug interaction): 0.90
[7]
  CDI (coefficient of drug interaction): 0.97
[8]
  CDI (coefficient of drug interaction): Tox
[9]
  CDI (coefficient of drug interaction): 0.78
[10]
  CDI (coefficient of drug interaction): 0.70
[11]
  CDI (coefficient of drug interaction): 0.61
[12]
  CDI (coefficient of drug interaction): Tox
[13]
  CDI (coefficient of drug interaction), gold + biocide: 0.92
[14]
  CDI (coefficient of drug interaction), gold + biocide: 1.01
[15]
  CDI (coefficient of drug interaction), gold + biocide: 0.94
[16]
  CDI (coefficient of drug interaction), gold + biocide: 0.64
[17]
  CDI (coefficient of drug interaction), gold + biocide: 1.05
[18]
  CDI (coefficient of drug interaction), gold + biocide: 1.09
[19]
  CDI (coefficient of drug interaction), gold + biocide: 0.89
[20]
  CDI (coefficient of drug interaction), gold + biocide: 0.64
[21]
  CDI (coefficient of drug interaction), gold + biocide: 0.94
[22]
  CDI (coefficient of drug interaction), gold + biocide: 0.93
[23]
  CDI (coefficient of drug interaction), gold + biocide: 0.93
[24]
  CDI (coefficient of drug interaction), gold + biocide: 0.47
[25]
  CDI: 0.90
[26]
  CDI: 1.07
[27]
  CDI: Tox
[28]
  CDI: 0.97
[29]
  CDI: 0.90
[30]
  CDI: 1.14
[31]
  CDI: Tox
[32]
  CDI: 1.03
[33]
  CDI: 1.08
[34]
  CDI: 0.70
[35]
  CDI: Tox

## O=C1C2CC=CCC2C(=O)N1SC(Cl)(Cl)Cl (centres unmarked) [captan]
[36]
  CDI (coefficient of drug interaction), silver + biocide: Tox
[37]
  CDI (coefficient of drug interaction), silver + biocide: Tox
[38]
  CDI (coefficient of drug interaction), silver + biocide: Tox

## CC(C)c1nc2nc(N)nc(N)c2nc1C(C)C [2,4-Diamino-6,7-diisopropylpteridine]
[39]
  CDI (coefficient of drug interaction), copper mixed with biocide: Tox
[40]
  CDI (coefficient of drug interaction), copper mixed with biocide: Tox
[41]
  CDI (coefficient of drug interaction), copper mixed with biocide: Tox
[42]
  CDI (coefficient of drug interaction): Tox
[43]
  CDI (coefficient of drug interaction): Tox
[44]
  CDI (coefficient of drug interaction): Tox
[36]
  CDI (coefficient of drug interaction), silver + biocide: Tox
[37]
  CDI (coefficient of drug interaction), silver + biocide: Tox
[38]
  CDI (coefficient of drug interaction), silver + biocide: Tox

## Cc1cc(O)cc(C)c1Cl [chloroxylenol]
2nd of 3 copper concentrations (value not shown), 2nd of four biocide concentrations
  CDI (coefficient of drug interaction), copper mixed with biocide: Tox
[45]
  CDI (coefficient of drug interaction), copper mixed with biocide: Tox
[40]
  CDI (coefficient of drug interaction), copper mixed with biocide: Tox
Gold section of Table 5, first of three gold concentrations (μM, value not given), biocide concentration 3 of 4
  CDI (coefficient of drug interaction): Tox
[42]
  CDI (coefficient of drug interaction): Tox
Gold section of Table 5, second of three gold concentrations (μM, value not given), biocide concentration 3 of 4
  CDI (coefficient of drug interaction): Tox
[43]
  CDI (coefficient of drug interaction): Tox
Gold section of Table 5, third of three gold concentrations (μM, value not given), biocide concentration 3 of 4
  CDI (coefficient of drug interaction): Tox
[44]
  CDI (coefficient of drug interaction): Tox
Silver 0.5 μM, 3rd of four biocide concentrations, E. coli
  CDI (coefficient of drug interaction), silver + biocide: Tox
[36]
  CDI (coefficient of drug interaction), silver + biocide: Tox
Silver 1.0 μM, 2nd of four biocide concentrations, E. coli
  CDI (coefficient of drug interaction), silver + biocide: Tox
Silver 1.0 μM, 3rd of four biocide concentrations, E. coli
  CDI (coefficient of drug interaction), silver + biocide: Tox
[37]
  CDI (coefficient of drug interaction), silver + biocide: Tox
Silver 5.0 μM, 2nd of four biocide concentrations, E. coli
  CDI (coefficient of drug interaction), silver + biocide: Tox
Silver 5.0 μM, 3rd of four biocide concentrations, E. coli
  CDI (coefficient of drug interaction), silver + biocide: Tox
[38]
  CDI (coefficient of drug interaction), silver + biocide: Tox

## CCn1cc(C(=O)O)c(=O)c2cnc(N3CCNCC3)nc21 [pipemidic acid]
1st of 3 copper concentrations (value not shown), 3rd of four biocide concentrations
  CDI (coefficient of drug interaction), copper mixed with biocide: Tox
[39]
  CDI (coefficient of drug interaction), copper mixed with biocide: Tox
[45]
  CDI (coefficient of drug interaction), copper mixed with biocide: Tox
[40]
  CDI (coefficient of drug interaction), copper mixed with biocide: Tox
3rd of 3 copper concentrations (value not shown), 3rd of four biocide concentrations
  CDI (coefficient of drug interaction), copper mixed with biocide: Tox
[41]
  CDI (coefficient of drug interaction), copper mixed with biocide: Tox

## NCC(=O)NO [glycine hydroxamate]
[1]
  CDI (coefficient of drug interaction): 1.36
[2]
  CDI (coefficient of drug interaction): Tox
[3]
  CDI (coefficient of drug interaction): Tox
[4]
  CDI (coefficient of drug interaction): Tox
[5]
  CDI (coefficient of drug interaction): 1.06
[6]
  CDI (coefficient of drug interaction): 0.47
[7]
  CDI (coefficient of drug interaction): Tox
[8]
  CDI (coefficient of drug interaction): Tox
[9]
  CDI (coefficient of drug interaction): 1.73
[10]
  CDI (coefficient of drug interaction): Tox
[11]
  CDI (coefficient of drug interaction): Tox
[12]
  CDI (coefficient of drug interaction): Tox
[13]
  CDI (coefficient of drug interaction), gold + biocide: 1.08
[14]
  CDI (coefficient of drug interaction), gold + biocide: 0.95
[15]
  CDI (coefficient of drug interaction), gold + biocide: 1.13
[16]
  CDI (coefficient of drug interaction), gold + biocide: 1.01
[17]
  CDI (coefficient of drug interaction), gold + biocide: 1.07
[18]
  CDI (coefficient of drug interaction), gold + biocide: 1.11
[19]
  CDI (coefficient of drug interaction), gold + biocide: 1.19
[21]
  CDI (coefficient of drug interaction), gold + biocide: 1.00
[22]
  CDI (coefficient of drug interaction), gold + biocide: 1.07
[23]
  CDI (coefficient of drug interaction), gold + biocide: 1.39
[24]
  CDI (coefficient of drug interaction), gold + biocide: 1.22
[25]
  CDI: 0.74
[26]
  CDI: 0.72
[46]
  CDI: 0.79
[27]
  CDI: 0.76
[28]
  CDI: 0.95
[29]
  CDI: 0.99
[30]
  CDI: 0.95
[31]
  CDI: 1.07
[32]
  CDI: 1.00
[33]
  CDI: 0.95
[34]
  CDI: 1.09
[35]
  CDI: 0.88

## colistin
[1]
  CDI (coefficient of drug interaction): 0.95
[2]
  CDI (coefficient of drug interaction): 0.98
[3]
  CDI (coefficient of drug interaction): Tox
[4]
  CDI (coefficient of drug interaction): Tox
[5]
  CDI (coefficient of drug interaction): 0.82
[6]
  CDI (coefficient of drug interaction): 0.87
[7]
  CDI (coefficient of drug interaction): Tox
[8]
  CDI (coefficient of drug interaction): Tox
[9]
  CDI (coefficient of drug interaction): 0.63
[10]
  CDI (coefficient of drug interaction): 0.45
[11]
  CDI (coefficient of drug interaction): Tox
[12]
  CDI (coefficient of drug interaction): Tox
[13]
  CDI (coefficient of drug interaction), gold + biocide: 1.10
[14]
  CDI (coefficient of drug interaction), gold + biocide: 1.18
[15]
  CDI (coefficient of drug interaction), gold + biocide: Tox
[16]
  CDI (coefficient of drug interaction), gold + biocide: Tox
[18]
  CDI (coefficient of drug interaction), gold + biocide: 0.95
[19]
  CDI (coefficient of drug interaction), gold + biocide: Tox
[20]
  CDI (coefficient of drug interaction), gold + biocide: Tox
[21]
  CDI (coefficient of drug interaction), gold + biocide: 1.09
[22]
  CDI (coefficient of drug interaction), gold + biocide: 0.14
[23]
  CDI (coefficient of drug interaction), gold + biocide: Tox
[24]
  CDI (coefficient of drug interaction), gold + biocide: Tox
[25]
  CDI: 0.95
[26]
  CDI: 0.75
[46]
  CDI: Tox
[27]
  CDI: Tox
[28]
  CDI: 0.97
[29]
  CDI: 0.24
[30]
  CDI: Tox
[31]
  CDI: Tox
[32]
  CDI: 0.84
[33]
  CDI: 0.08
[34]
  CDI: Tox
[35]
  CDI: Tox
